Experimental findings from US20240148821A1, “PHARMACEUTICAL USE OF CYCLIC PEPTIDE COMPOUND” (CHUGAI SEIYAKU KABUSHIKI KAISHA, priority 2021, published 2024) are described below.

Bridge positions count the residues as written; N and C are the ends. Square brackets hold non-standard residues; d marks the D form. Peptide text beside a SMILES is read from it. * marks the point of attachment. hPhe(3,5-F2-4-CF3) = N[C@@H](CCc1cc(F)c(C(F)(F)F)c(F)c1)C(=O)O; hPhe(3-Cl-4-CF3) = N[C@@H](CCc1ccc(C(F)(F)F)c(Cl)c1)C(=O)O; NMePhe(4-CF3) = CN[C@@H](Cc1ccc(C(F)(F)F)cc1)C(=O)O; NMeAbu(4,4,4-F3) = CN[C@@H](CC(F)(F)F)C(=O)O; NMePhe(4-Me) = CN[C@@H](Cc1ccc(C)cc1)C(=O)O; NMeAla(cPent) = CN[C@@H](CC1CCCC1)C(=O)O; NMeGly(cPent) = CN[C@H](C(=O)O)C1CCCC1; Phe(3-I) = N[C@@H](Cc1cccc(I)c1)C(=O)O; Pro(4,4-F2) = O=C(O)[C@@H]1CC(F)(F)CN1; NMeY = CN[C@@H](Cc1ccc(O)cc1)C(=O)O; NMeCha = CN[C@@H](CC1CCCCC1)C(=O)O; Hyp = O=C(O)[C@@H]1C[C@@H](O)CN1; NEtLeu = CCN[C@@H](CC(C)C)C(=O)O; NMeChg = CN[C@H](C(=O)O)C1CCCCC1; NMeI = CC[C@H](C)[C@H](NC)C(=O)O; NMeD = CN[C@@H](CC(=O)O)C(=O)O; NMeL = CN[C@@H](CC(C)C)C(=O)O; NMeNva = CCC[C@H](NC)C(=O)O; NMeA = CN[C@@H](C)C(=O)O; NMeAib = CNC(C)(C)C(=O)O; Piperidide = C1CCN(*)CC1; Pra = C#CC[C@H](N)C(=O)O; Pyrrolidide = C1CCN(*)C1; Ac5c = NC1(C(=O)O)CCCC1; Aze = O=C(O)[C@@H]1CCN1; Ac4c = NC1(C(=O)O)CCC1; Sar = CNCC(=O)O

For the experiment, the system named is Human pancreatic cancer cell line AsPC-1 (G12D mutation Kras). Kind of experiment: AsPC-1 cell growth inhibition (AsPC-1 CGI). The settings on record: read-out: AsPC-1 cell growth inhibition, 50% growth inhibitory concentration (IC50 value); 96 hours, CellTiter-Glo, values classified in ranges. Format: cell-based. For orientation: Cellular ATP, detected with luciferase, serves as a proxy for viable cell number.
Experimental: Test compounds were serially dilated with dimethyl sulfoxide, and 200 nL was then dispensed to a U-bottom 96-well plate using Labcyte Echo. […] The cell suspension was dispensed to a. plate containing a test compound at 100 μL per well and incubated at 37° C. in a 5% carbon dioxide gas incubator. 96 hours later, 80 μL of CellTiter-Glo (Promega) was added to each well and fluorescence was measured.
For the compound `CCO[C@@H]1C[C@H]2C(=O)NC3(CCCC3)C(=O)N(C)[C@@H](C3CCCCC3)C(=O)N(C)[C@H](C(=O)N3CCCC3)CC(=O)N(C)[C@@H](CC(F)(F)F)C(=O)N[C@@H]([C@@H](C)CC)C(=O)N(C)CC(=O)N(C)CC(=O)N(C)[C@@H](Cc3ccc(C(F)(F)F)cc3)C(=O)N(C)CC(=O)N[C@@H](CCc3ccc(C(F)(F)F)c(Cl)c3)C(=O)N2C1` [Compound 1139] ([NMeAbu(4,4,4-F3)]I[Sar][Sar][NMePhe(4-CF3)][Sar][hPhe(3-Cl-4-CF3)][Hyp](Et)[Ac5c][NMeChg][NMeD]-Pyrrolidide; lactam N-11), the IC50 is not above 20 nM.

`CC[C@H](C)[C@@H]1NC(=O)[C@H](CC2CCCC2)N(C)C(=O)C[C@@H](C(=O)N(C)C)N(C)C(=O)[C@H]([C@@H](C)CC)N(C)C(=O)C2(CCCC2)NC(=O)[C@@H]2CCCN2C(=O)[C@H](CCc2ccc(C(F)(F)F)c(Cl)c2)NC(=O)CN(C)C(=O)[C@H](Cc2ccc(C)cc2)N(C)C(=O)[C@@H]2CCN2C(=O)[C@H](C)NC1=O` [Compound 1141] ([NMeAla(cPent)]IA[Aze][NMePhe(4-Me)][Sar][hPhe(3-Cl-4-CF3)]P[Ac5c][NMeI][NMeD]-NMe2; lactam N-11): the IC50 is not above 20 nM.

Regarding `CC[C@H](C)[C@@H]1NC(=O)[C@H](CC(C)C)N(CC)C(=O)C[C@@H](C(=O)N(C)C)N(C)C(=O)[C@H](C2CCCC2)N(C)C(=O)C2(CCCC2)NC(=O)[C@@H]2CCCN2C(=O)[C@H](CCc2ccc(C(F)(F)F)c(Cl)c2)NC(=O)CN(C)C(=O)[C@H](Cc2ccc(C)cc2)N(C)C(=O)[C@@H]2CCN2C(=O)[C@H](C)N(C)C1=O` [Compound 1148] ([NEtLeu]I[NMeA][Aze][NMePhe(4-Me)][Sar][hPhe(3-Cl-4-CF3)]P[Ac5c][NMeGly(cPent)][NMeD]-NMe2; lactam N-11), the IC50 is not above 20 nM.

Regarding `CC[C@H](C)[C@@H]1NC(=O)[C@H](CC(C)C)N(C)C(=O)C[C@@H](C(=O)N2CCCCC2)N(C)C(=O)[C@H](C2CCCCC2)N(C)C(=O)[C@H](C(C)C)NC(=O)[C@@H]2CCCN2C(=O)[C@H](CCc2ccc(C(F)(F)F)c(Cl)c2)NC(=O)CN(C)C(=O)[C@H](CC2CCCCC2)N(C)C(=O)CN(C)C(=O)CN(C)C1=O` [Compound 1157] ([NMeL]I[Sar][Sar][NMeCha][Sar][hPhe(3-Cl-4-CF3)]PV[NMeChg][NMeD]-Piperidide; lactam N-11), the IC50 was more than 500 nM.

On to `CCC[C@H]1C(=O)N[C@@H]([C@@H](C)CC)C(=O)N(C)CC(=O)N(C)CC(=O)N(C)[C@@H](CC2CCCCC2)C(=O)N(C)CC(=O)N[C@@H](CCc2cc(F)c(C(F)(F)F)c(F)c2)C(=O)N2CC(F)(F)C[C@H]2C(=O)NC2(CCCC2)C(=O)N(C)[C@@H](C2CCCCC2)C(=O)N(C)[C@H](C(=O)N2CCCC2)CC(=O)N1C` [Compound 1160] ([NMeNva]I[Sar][Sar][NMeCha][Sar][hPhe(3,5-F2-4-CF3)][Pro(4,4-F2)][Ac5c][NMeChg][NMeD]-Pyrrolidide; lactam N-11), for which the IC50 is not above 20 nM.

Regarding `CC[C@H](C)[C@@H]1NC(=O)[C@H](CC(C)C)N(C)C(=O)C[C@@H](C(=O)N2CCCC2)N(C)C(=O)[C@H](C2CCCCC2)N(C)C(=O)C2(CCC2)NC(=O)[C@@H]2CC(F)(F)CN2C(=O)[C@H](CCc2ccc(C(F)(F)F)c(Cl)c2)NC(=O)CN(C)C(=O)[C@H](CC2CCCCC2)N(C)C(=O)CN(C)C(=O)CN(C)C1=O` [Compound 1163] ([NMeL]I[Sar][Sar][NMeCha][Sar][hPhe(3-Cl-4-CF3)][Pro(4,4-F2)][Ac4c][NMeChg][NMeD]-Pyrrolidide; lactam N-11), the IC50 is not above 20 nM.

As to `CC[C@H](C)[C@@H]1NC(=O)[C@H](CC(C)C)N(C)C(=O)C[C@@H](C(=O)N2CCCC2)N(C)C(=O)[C@H](C2CCCCC2)N(C)C(=O)C2(CCC2)NC(=O)[C@@H]2CCCN2C(=O)[C@H](CCc2cc(F)c(C(F)(F)F)c(F)c2)NC(=O)CN(C)C(=O)[C@H](CC2CCCCC2)N(C)C(=O)CN(C)C(=O)CN(C)C1=O` [Compound 1165] ([NMeL]I[Sar][Sar][NMeCha][Sar][hPhe(3,5-F2-4-CF3)]P[Ac4c][NMeChg][NMeD]-Pyrrolidide; lactam N-11), the IC50 is not above 20 nM.

For `CC[C@H](C)[C@@H]1NC(=O)[C@H](CC(C)C)N(C)C(=O)C[C@@H](C(=O)N2CCCC2)N(C)C(=O)[C@H](C2CCCC2)N(C)C(=O)C2(CCCC2)NC(=O)[C@@H]2CC(F)(F)CN2C(=O)[C@H](CCc2cc(F)c(C(F)(F)F)c(F)c2)NC(=O)CN(C)C(=O)[C@H](CC2CCCCC2)N(C)C(=O)CN(C)C(=O)CN(C)C1=O` [Compound 1166] ([NMeL]I[Sar][Sar][NMeCha][Sar][hPhe(3,5-F2-4-CF3)][Pro(4,4-F2)][Ac5c][NMeGly(cPent)][NMeD]-Pyrrolidide; lactam N-11), the IC50 is not above 20 nM.

In the case of `C#CC[C@@H]1NC(=O)[C@H](Cc2cccc(I)c2)NC(=O)CN(C)C(=O)[C@H](Cc2ccc(OC)cc2)N(C)C(=O)CN(C)C(=O)CN(C)C(=O)[C@H]([C@@H](C)CC)NC(=O)[C@H](CC(C)C)N(C)C(=O)C[C@@H](C(=O)N2CCCCC2)N(C)C(=O)[C@H](CC(C)C)NC(=O)C(C)(C)N(C)C1=O` [Compound 1169] ([NMeL]I[Sar][Sar][NMeY](Me)[Sar][Phe(3-I)][Pra][NMeAib]L[NMeD]-Piperidide; lactam N-11), the IC50 is more than 500 nM.
